# Assay results: PubChem BioAssay AID1963427 (Molecular Pharmacology Branch, DTP, NCI, 2024)
# Test system: 317291-083-R-J1-PDC complex spheroid growth
# Experiment: Anticancer human tumor 317291-083-R-J1-PDC patient-derived soft tissue sarcoma cell line growth inhibition [Asc]
# Conditions: for IC50: curve of first compound; for viability, T/C: stronger effect = lower value
# Procedure, shortened: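 Concentration series start at each agent's clinical Cmax, or at 10 microM when none is established, and drop in half-log steps; agents are applied alone or together to complex spheroids built with HUVEC and hMSC.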
# [1] = second compound 0.00949 µM, first compound 0.0316 µM
# [2] = second compound 0.00949 µM, first compound 0.1 µM
# [3] = second compound 0.00949 µM, first compound 0.316 µM
# [4] = second compound 0.00949 µM, first compound 1 µM
# [5] = second compound 0.00949 µM, first compound 3.16 µM
# [6] = second compound 0.00949 µM, first compound 10 µM
# [7] = second compound 0.03 µM, first compound 0.0316 µM
# [8] = second compound 0.03 µM, first compound 0.1 µM
# [9] = second compound 0.03 µM, first compound 0.316 µM
# [10] = second compound 0.03 µM, first compound 1 µM
# [11] = second compound 0.03 µM, first compound 3.16 µM
# [12] = second compound 0.03 µM, first compound 10 µM
# [13] = second compound 0.0949 µM, first compound 0.0316 µM
# [14] = second compound 0.0949 µM, first compound 0.1 µM
# [15] = second compound 0.0949 µM, first compound 0.316 µM
# [16] = second compound 0.0949 µM, first compound 1 µM
# [17] = second compound 0.0949 µM, first compound 3.16 µM
# [18] = second compound 0.0949 µM, first compound 10 µM
# [19] = second compound 0.3 µM, first compound 0.0316 µM
# [20] = second compound 0.3 µM, first compound 0.1 µM
# [21] = second compound 0.3 µM, first compound 0.316 µM
# [22] = second compound 0.3 µM, first compound 1 µM
# [23] = second compound 0.3 µM, first compound 3.16 µM
# [24] = second compound 0.3 µM, first compound 10 µM
# [25] = second compound 0.949 µM, first compound 0.0316 µM
# [26] = second compound 0.949 µM, first compound 0.1 µM
# [27] = second compound 0.949 µM, first compound 0.316 µM
# [28] = second compound 0.949 µM, first compound 1 µM
# [29] = second compound 0.949 µM, first compound 3.16 µM
# [30] = second compound 0.949 µM, first compound 10 µM
# [31] = second compound 3 µM, first compound 0.0316 µM
# [32] = second compound 3 µM, first compound 0.1 µM
# [33] = second compound 3 µM, first compound 0.316 µM
# [34] = second compound 3 µM, first compound 1 µM
# [35] = second compound 3 µM, first compound 3.16 µM
# [36] = second compound 3 µM, first compound 10 µM
# 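Also: compound exposure lasted seven days after spheroids formed for three days.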
# 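For viability, T/C in this document: 100% = DMSO vehicle control wells.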
smiles,measurement,setting,value
C#Cc1c(F)ccc2cc(O)cc(-c3ncc4c(N5CC6CCC(C5)N6)nc(OCC56CCCN5CC(F)C6)nc4c3F)c12 (stereo not drawn) + CCN1C(C(=O)NC23CCC(C(=O)O)(CC2)CC3)C(c2cccc(Cl)c2F)C2(C(=O)Nc3cc(Cl)ccc32)C12CCCCC2,IC50,second compound 0.00949 µM,> 10000 nM
same,IC50,second compound 0.03 µM,> 10000 nM
same,IC50,second compound 0.0949 µM,> 10000 nM
same,IC50,second compound 0.3 µM,> 10000 nM
same,IC50,second compound 0.949 µM,> 10000 nM
same,IC50,second compound 3 µM,> 10000 nM
same,"viability, T/C",[1],129%
same,"viability, T/C",[2],78.8%
same,"viability, T/C",[3],125%
same,"viability, T/C",[4],153%
same,"viability, T/C",[5],113%
same,"viability, T/C",[6],66.1%
same,"viability, T/C",[7],106%
same,"viability, T/C",[8],98.3%
same,"viability, T/C",[9],106%
same,"viability, T/C",[10],112%
same,"viability, T/C",[11],78.2%
same,"viability, T/C",[12],80.2%
same,"viability, T/C",[13],108%
same,"viability, T/C",[14],101%
same,"viability, T/C",[15],104%
same,"viability, T/C",[16],99.6%
same,"viability, T/C",[17],118%
same,"viability, T/C",[18],79.4%
same,"viability, T/C",[19],101%
same,"viability, T/C",[20],97.6%
same,"viability, T/C",[21],120%
same,"viability, T/C",[22],126%
same,"viability, T/C",[23],101%
same,"viability, T/C",[24],69.9%
same,"viability, T/C",[25],104%
same,"viability, T/C",[26],108%
same,"viability, T/C",[27],90.2%
same,"viability, T/C",[28],98.7%
same,"viability, T/C",[29],100%
same,"viability, T/C",[30],78.4%
same,"viability, T/C",[31],72.3%
same,"viability, T/C",[32],74.1%
same,"viability, T/C",[33],77.2%
same,"viability, T/C",[34],86.6%
same,"viability, T/C",[35],69.9%
same,"viability, T/C",[36],53.6%
C=C(F)C(=O)N1CCN(c2nc(OCC3CCCN3C)nc3c2CCN(c2cccc4cccc(Cl)c24)C3)CC1CC#N (stereo not drawn) + CCN1C(C(=O)NC23CCC(C(=O)O)(CC2)CC3)C(c2cccc(Cl)c2F)C2(C(=O)Nc3cc(Cl)ccc32)C12CCCCC2,IC50,second compound 0.00949 µM,2510 nM
same,IC50,second compound 0.03 µM,2830 nM
same,IC50,second compound 0.0949 µM,3940 nM
same,IC50,second compound 0.3 µM,1980 nM
same,IC50,second compound 0.949 µM,2430 nM
same,IC50,second compound 3 µM,2110 nM
same,"viability, T/C",[1],105%
same,"viability, T/C",[2],101%
same,"viability, T/C",[3],90.2%
same,"viability, T/C",[4],93.2%
same,"viability, T/C",[5],39.3%
same,"viability, T/C",[6],0.31%
same,"viability, T/C",[7],92.7%
same,"viability, T/C",[8],91.8%
same,"viability, T/C",[9],99.3%
same,"viability, T/C",[10],95.2%
same,"viability, T/C",[11],45.1%
same,"viability, T/C",[12],0.14%
same,"viability, T/C",[13],106%
same,"viability, T/C",[14],89%
same,"viability, T/C",[15],122%
same,"viability, T/C",[16],98.7%
same,"viability, T/C",[17],61.9%
same,"viability, T/C",[18],0.14%
same,"viability, T/C",[19],106%
same,"viability, T/C",[20],92.4%
same,"viability, T/C",[21],92.7%
same,"viability, T/C",[22],86.8%
same,"viability, T/C",[23],24.8%
same,"viability, T/C",[24],0.21%
same,"viability, T/C",[25],104%
same,"viability, T/C",[26],93%
same,"viability, T/C",[27],91.9%
same,"viability, T/C",[28],98%
same,"viability, T/C",[29],36.1%
same,"viability, T/C",[30],0.19%
same,"viability, T/C",[31],78.2%
same,"viability, T/C",[32],91.9%
same,"viability, T/C",[33],85.5%
same,"viability, T/C",[34],64.5%
same,"viability, T/C",[35],41.4%
same,"viability, T/C",[36],1.13%
C=CC(=O)N1CCN(c2nc(=O)n(-c3c(C)ccnc3C(C)C)c3nc(-c4c(O)cccc4F)c(F)cc23)C(C)C1 (stereo not drawn) + CCN1C(C(=O)NC23CCC(C(=O)O)(CC2)CC3)C(c2cccc(Cl)c2F)C2(C(=O)Nc3cc(Cl)ccc32)C12CCCCC2,IC50,second compound 0.00949 µM,> 10000 nM
same,IC50,second compound 0.03 µM,> 10000 nM
same,IC50,second compound 0.0949 µM,> 10000 nM
same,IC50,second compound 0.3 µM,> 10000 nM
same,IC50,second compound 0.949 µM,> 10000 nM
same,IC50,second compound 3 µM,8770 nM
same,"viability, T/C",[1],94.8%
same,"viability, T/C",[2],79.8%
same,"viability, T/C",[3],85.8%
same,"viability, T/C",[4],92.5%
same,"viability, T/C",[5],77.6%
same,"viability, T/C",[6],71.8%
same,"viability, T/C",[7],90.1%
same,"viability, T/C",[8],80.2%
same,"viability, T/C",[9],93.2%
same,"viability, T/C",[10],89.3%
same,"viability, T/C",[11],84.8%
same,"viability, T/C",[12],71.2%
same,"viability, T/C",[13],101%
same,"viability, T/C",[14],93.3%
same,"viability, T/C",[15],98.6%
same,"viability, T/C",[16],94.7%
same,"viability, T/C",[17],84%
same,"viability, T/C",[18],71.4%
same,"viability, T/C",[19],99.7%
same,"viability, T/C",[20],81.2%
same,"viability, T/C",[21],94.1%
same,"viability, T/C",[22],93.3%
same,"viability, T/C",[23],111%
same,"viability, T/C",[24],69.2%
same,"viability, T/C",[25],85.2%
same,"viability, T/C",[26],84.7%
same,"viability, T/C",[27],89.2%
same,"viability, T/C",[28],77.7%
same,"viability, T/C",[29],83.3%
same,"viability, T/C",[30],67%
same,"viability, T/C",[31],68.6%
same,"viability, T/C",[32],72.6%
same,"viability, T/C",[33],72.4%
same,"viability, T/C",[34],98.5%
same,"viability, T/C",[35],82.3%
same,"viability, T/C",[36],46.3%
CNC(C)C(=O)NC1CN(S(=O)(=O)c2cccc(S(=O)(=O)N3CCC4CCC(C(=O)NC(c5ccccc5)c5ccccc5)N4C(=O)C(NC(=O)C(C)NC)C3)c2)CCC2CCC(C(=O)NC(c3ccccc3)c3ccccc3)N2C1=O (stereo not drawn) + CCN1C(C(=O)NC23CCC(C(=O)O)(CC2)CC3)C(c2cccc(Cl)c2F)C2(C(=O)Nc3cc(Cl)ccc32)C12CCCCC2,IC50,second compound 0.00949 µM,253 nM
same,IC50,second compound 0.03 µM,517 nM
same,IC50,second compound 0.0949 µM,313 nM
same,IC50,second compound 0.3 µM,459 nM
same,IC50,second compound 0.949 µM,> 1000 nM
same,IC50,second compound 3 µM,75.2 nM
same,"viability, T/C","second compound 0.00949 µM, first compound 0.00316 µM",96.9%
same,"viability, T/C","second compound 0.00949 µM, first compound 0.01 µM",86%
same,"viability, T/C",[1],71.7%
same,"viability, T/C",[2],61.3%
same,"viability, T/C",[3],49.5%
same,"viability, T/C",[4],32.1%
same,"viability, T/C","second compound 0.03 µM, first compound 0.00316 µM",81.3%
same,"viability, T/C","second compound 0.03 µM, first compound 0.01 µM",87.8%
same,"viability, T/C",[7],72.5%
same,"viability, T/C",[8],65.2%
same,"viability, T/C",[9],50.9%
same,"viability, T/C",[10],47.7%
same,"viability, T/C","second compound 0.0949 µM, first compound 0.00316 µM",108%
same,"viability, T/C","second compound 0.0949 µM, first compound 0.01 µM",101%
same,"viability, T/C",[13],79.1%
same,"viability, T/C",[14],67.4%
same,"viability, T/C",[15],49.1%
same,"viability, T/C",[16],39.2%
same,"viability, T/C","second compound 0.3 µM, first compound 0.00316 µM",98.7%
same,"viability, T/C","second compound 0.3 µM, first compound 0.01 µM",71.4%
same,"viability, T/C",[19],70.9%
same,"viability, T/C",[20],68.7%
same,"viability, T/C",[21],54.5%
same,"viability, T/C",[22],41.1%
same,"viability, T/C","second compound 0.949 µM, first compound 0.00316 µM",90.1%
same,"viability, T/C","second compound 0.949 µM, first compound 0.01 µM",66.4%
same,"viability, T/C",[25],64.1%
same,"viability, T/C",[26],62.4%
same,"viability, T/C",[27],38.9%
same,"viability, T/C",[28],63.8%
same,"viability, T/C","second compound 3 µM, first compound 0.00316 µM",64.4%
same,"viability, T/C","second compound 3 µM, first compound 0.01 µM",66.1%
same,"viability, T/C",[31],59%
same,"viability, T/C",[32],47.7%
same,"viability, T/C",[33],34.6%
same,"viability, T/C",[34],35.4%
